The CheMixHub viscosity set
Where “and” joins values, the source holds several entries; their conditions need not be identical. Identical values can stand only once.

Experiment: xn = mol fraction of the nth substance listed

CCCO + O
Settings | viscosity
293.15 K, 100 kPa, x1 = 0.07 | 2.217 mPa·s
293.15 K, 100 kPa, x1 = 0.2 | 3.175 mPa·s and 3.013 mPa·s
293.15 K, 101 kPa, x1 = 0.01 | 1.156 mPa·s
293.15 K, 101 kPa, x1 = 0.02 | 1.335 mPa·s
293.15 K, 101 kPa, x1 = 0.05 | 1.898 mPa·s
293.15 K, 101 kPa, x1 = 0.07 | 2.209 mPa·s
293.15 K, 101 kPa, x1 = 0.1 | 2.545 mPa·s
293.15 K, 101 kPa, x1 = 0.2838 | 3.191 mPa·s
293.15 K, 101 kPa, x1 = 0.3 | 3.173 mPa·s
293.15 K, 101 kPa, x1 = 0.4 | 3.053 mPa·s
293.15 K, 101 kPa, x1 = 0.5 | 2.88 mPa·s
293.15 K, 101 kPa, x1 = 0.6 | 2.707 mPa·s
293.15 K, 101 kPa, x1 = 0.7001 | 2.537 mPa·s
293.15 K, 101 kPa, x1 = 0.8 | 2.403 mPa·s
298.15 K, 101 kPa, x1 = 0.0058 | 0.9625 mPa·s
298.15 K, 101 kPa, x1 = 0.01 | 1.024 mPa·s
298.15 K, 101 kPa, x1 = 0.02 | 1.16 mPa·s
298.15 K, 101 kPa, x1 = 0.0237 | 1.225 mPa·s
298.15 K, 101 kPa, x1 = 0.0461 | 1.552 mPa·s
298.15 K, 101 kPa, x1 = 0.05 | 1.603 mPa·s
298.15 K, 101 kPa, x1 = 0.0678 | 1.82 mPa·s
298.15 K, 101 kPa, x1 = 0.07 | 1.844 mPa·s
298.15 K, 101 kPa, x1 = 0.0976 | 2.164 mPa·s
298.15 K, 101 kPa, x1 = 0.1195 | 2.263 mPa·s
298.15 K, 101 kPa, x1 = 0.1833 | 2.576 mPa·s
298.15 K, 101 kPa, x1 = 0.2398 | 2.682 mPa·s
298.15 K, 101 kPa, x1 = 0.2838 | 2.685 mPa·s
298.15 K, 101 kPa, x1 = 0.3108 | 2.702 mPa·s
298.15 K, 101 kPa, x1 = 0.4 | 2.592 mPa·s
298.15 K, 101 kPa, x1 = 0.4971 | 2.511 mPa·s
298.15 K, 101 kPa, x1 = 0.5 | 2.465 mPa·s
298.15 K, 101 kPa, x1 = 0.6 | 2.333 mPa·s
298.15 K, 101 kPa, x1 = 0.6916 | 2.236 mPa·s
298.15 K, 101 kPa, x1 = 0.7001 | 2.202 mPa·s
298.15 K, 101 kPa, x1 = 0.8 | 2.097 mPa·s
298.15 K, 101 kPa, x1 = 0.8011 | 2.129 mPa·s
298.15 K, 101 kPa, x1 = 0.8967 | 2.039 mPa·s
298.15 K, 101 kPa, x2 = 0.0021 | 1.985 mPa·s
298.15 K, 101 kPa, x2 = 0.0695 | 2.041 mPa·s
298.15 K, 101 kPa, x2 = 0.0932 | 2.063 mPa·s
298.15 K, 101 kPa, x2 = 0.1232 | 2.085 mPa·s
298.15 K, 101 kPa, x2 = 0.1439 | 2.104 mPa·s
298.15 K, 101 kPa, x2 = 0.1892 | 2.142 mPa·s
298.15 K, 101 kPa, x2 = 0.2084 | 2.16 mPa·s
298.15 K, 101 kPa, x2 = 0.9678 | 1.11 mPa·s
298.15 K, 101.3 kPa, x1 = 0.01 | 1.027 mPa·s
298.15 K, 101.3 kPa, x1 = 0.025 | 1.247 mPa·s
298.15 K, 101.3 kPa, x1 = 0.045 | 1.55 mPa·s
298.15 K, 101.3 kPa, x1 = 0.065 | 1.81 mPa·s
298.15 K, 101.3 kPa, x1 = 0.08 | 1.969 mPa·s
303.15 K, 101 kPa, x1 = 0.01 | 0.906 mPa·s
303.15 K, 101 kPa, x1 = 0.02 | 1.019 mPa·s
303.15 K, 101 kPa, x1 = 0.05 | 1.366 mPa·s
303.15 K, 101 kPa, x1 = 0.07 | 1.555 mPa·s
303.15 K, 101 kPa, x1 = 0.1 | 1.786 mPa·s
303.15 K, 101 kPa, x1 = 0.2838 | 2.277 mPa·s
303.15 K, 101 kPa, x1 = 0.3 | 2.267 mPa·s
303.15 K, 101 kPa, x1 = 0.4 | 2.216 mPa·s
303.15 K, 101 kPa, x1 = 0.5 | 2.118 mPa·s
303.15 K, 101 kPa, x1 = 0.6 | 2.023 mPa·s
303.15 K, 101 kPa, x1 = 0.7001 | 1.92 mPa·s
303.15 K, 101 kPa, x2 = 0.0998 | 1.794 mPa·s
303.15 K, 101 kPa, x2 = 0.2 | 1.852 mPa·s
303.15 K, 101 kPa, x2 = 0.2998 | 1.94 mPa·s
303.15 K, 101 kPa, x2 = 0.5001 | 2.135 mPa·s
303.15 K, 101 kPa, x2 = 0.6996 | 2.273 mPa·s
303.15 K, 101 kPa, x2 = 0.7953 | 2.212 mPa·s
303.15 K, 101 kPa, x2 = 0.8997 | 1.795 mPa·s
303.15 K, 101 kPa, x2 = 0.9401 | 1.463 mPa·s
303.15 K, 101 kPa, x2 = 0.98 | 1.025 mPa·s
308.15 K, 101 kPa, x1 = 0.01 | 0.81 mPa·s
308.15 K, 101 kPa, x1 = 0.02 | 0.912 mPa·s
308.15 K, 101 kPa, x1 = 0.05 | 1.187 mPa·s
308.15 K, 101 kPa, x1 = 0.07 | 1.342 mPa·s
308.15 K, 101 kPa, x1 = 0.1 | 1.53 mPa·s
308.15 K, 101 kPa, x1 = 0.2838 | 1.951 mPa·s
308.15 K, 101 kPa, x1 = 0.3 | 1.953 mPa·s
308.15 K, 101 kPa, x1 = 0.4 | 1.915 mPa·s
308.15 K, 101 kPa, x1 = 0.5 | 1.84 mPa·s
308.15 K, 101 kPa, x1 = 0.6 | 1.765 mPa·s
308.15 K, 101 kPa, x1 = 0.7001 | 1.686 mPa·s
308.15 K, 101 kPa, x1 = 0.8 | 1.623 mPa·s
308.15 K, 101 kPa, x2 = 0.9678 | 0.9401 mPa·s
313.15 K, 101 kPa, x1 = 0.01 | 0.728 mPa·s
313.15 K, 101 kPa, x1 = 0.02 | 0.807 mPa·s
313.15 K, 101 kPa, x1 = 0.05 | 1.039 mPa·s
313.15 K, 101 kPa, x1 = 0.07 | 1.167 mPa·s
313.15 K, 101 kPa, x1 = 0.1 | 1.33 mPa·s
313.15 K, 101 kPa, x1 = 0.2 | 1.625 mPa·s
313.15 K, 101 kPa, x1 = 0.2838 | 1.69 mPa·s
313.15 K, 101 kPa, x1 = 0.3 | 1.692 mPa·s
313.15 K, 101 kPa, x1 = 0.5 | 1.61 mPa·s
313.15 K, 101 kPa, x1 = 0.6 | 1.547 mPa·s
313.15 K, 101 kPa, x1 = 0.7001 | 1.485 mPa·s
318.15 K, 101 kPa, x1 = 0.01 | 0.659 mPa·s
318.15 K, 101 kPa, x1 = 0.02 | 0.726 mPa·s
318.15 K, 101 kPa, x1 = 0.05 | 0.919 mPa·s
318.15 K, 101 kPa, x1 = 0.07 | 1.027 mPa·s
318.15 K, 101 kPa, x1 = 0.1 | 1.164 mPa·s
318.15 K, 101 kPa, x1 = 0.2 | 1.42 mPa·s
318.15 K, 101 kPa, x1 = 0.3 | 1.479 mPa·s
318.15 K, 101 kPa, x1 = 0.4 | 1.46 mPa·s
318.15 K, 101 kPa, x1 = 0.5 | 1.416 mPa·s
318.15 K, 101 kPa, x1 = 0.6 | 1.366 mPa·s
318.15 K, 101 kPa, x1 = 0.7001 | 1.315 mPa·s
318.15 K, 101 kPa, x2 = 0.9678 | 0.819 mPa·s
323.15 K, 100 kPa, x1 = 0.07 | 0.917 mPa·s
323.15 K, 100 kPa, x1 = 0.2 | 1.212 mPa·s
323.15 K, 100 kPa, x1 = 0.3 | 1.314 mPa·s
323.15 K, 101 kPa, x1 = 0.01 | 0.6 mPa·s
323.15 K, 101 kPa, x1 = 0.02 | 0.657 mPa·s
323.15 K, 101 kPa, x1 = 0.05 | 0.82 mPa·s
323.15 K, 101 kPa, x1 = 0.07 | 0.912 mPa·s
323.15 K, 101 kPa, x1 = 0.1 | 1.03 mPa·s
323.15 K, 101 kPa, x1 = 0.2 | 1.25 mPa·s
323.15 K, 101 kPa, x1 = 0.5 | 1.252 mPa·s
323.15 K, 101 kPa, x1 = 0.6 | 1.212 mPa·s
323.15 K, 101 kPa, x1 = 0.7001 | 1.171 mPa·s
